Reference: patent publication US9247759B2, “Identification of human T2R receptors that respond to bitter compounds that elicit the bitter taste in compositions, and the use thereof in assays to identify compounds that inhibit (block) bitter taste in compositions and use thereof” (SENOMYX, INC., priority 2007, dated 2016)
“And” between values parts separate entries of the source, which are not always exact repeats. Equal entries are not always repeated. Where two headings read alike, the source gives them in different places.

What was measured:
hT2R3 = hT2R3 (Homo sapiens (Human), UniProt Q9NYW6); assay: hT2R panel inhibition, transient HEK293 G16g44, agonist Chloroquine pH6.5 50 μM; type: cell-based; details: HEK293, compound at 25 μM; receptor activated to EC80 with the corresponding agonist; read-out: screening result against bitter receptor 3
In short: (§1)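 Transfect one hT2R per well set; stimulate with agonist at EC80; add test compound; record reduction of functional response as inhibition.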

hT2R14 [1] = biological target: T1, hT2R14 (Homo sapiens (Human), UniProt Q9NYV8); assay: hT2R panel inhibition, transient HEK293 G16g44, agonist Aristolochic Acid 2 μM; type: cell-based; details: HEK293, compound at 25 μM; receptor activated to EC80 with the corresponding agonist; read-out: screening result against bitter receptor 14
In short: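 Each hT2R was transiently transfected into HEK293 cells stably expressing G16g44 and assayed functionally for inhibition of agonist response. Agonists were applied at EC80: andrographolide at 0.5 mM for hT2R8 and aristolochic acid at 2 μM for hT2R14.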

hT2R75 = hT2R75 (Homo sapiens (Human), UniProt P59540); assay: hT2R panel inhibition, transient HEK293 G16g44, agonist Strychnine 1 μM; type: cell-based; details: HEK293, read-out: screening result against bitter receptor 75, compound at 25 μM; receptor activated to EC80 with the corresponding agonist
Experimental: (§2) Specifically, in order to evaluate the inhibitory selectivity of the Compound C compound, this compound was tested against 22 human T2Rs which were deorphaned by Senomyx. These receptors and the bitter ligands that activate these human T2Rs are reported in earlier patent applications which are incorporated by reference herein. These 22 human T2Rs are hT2R1, 3, 4, 5, 7, 8, 9, 10, 13, 14, 16, 44, 51, 54, 55, 61, 63, 64, 65, 67, 71 and 75. The amino acid and nucleic acid sequences of all of these T2Rs may be found in these earlier patent applications. These human T2Rs were each individually transiently transfected into HEK293 cells that stably express the promiscuous G protein G16g44 and functional assays were effected using these receptors as disclosed in these same patent applications. […] The ligands were used at EC80 concentration levels. The list of bitter ligands utilized and the tested ligand concentrations are contained in Table 5 of this example.
(§3) Relating to the foregoing, FIG. 5 contains experimental results wherein Compound C was tested with different agonist compounds. The inhibition activity is represented by the reduction of receptor activity in the presence of Compound C. […] These 13 hT2Rs are hT2R3, 7, 10, 14, 16, 44, 51, 55, 61, 63, 64, 65, and 71.

hT2R67 = assay: hT2R panel inhibition, transient HEK293 G16g44, agonist Andrographolide 5 μM; type: cell-based, human; details: compound at 25 μM; receptor activated to EC80 with the corresponding agonist
In short: as §1

hT2R61 = hT2R61 (Homo sapiens (Human), UniProt P59537); assay: hT2R panel inhibition, transient HEK293 G16g44, agonist Aristolochic Acid 25 nM; type: cell-based; details: HEK293, compound at 25 μM; receptor activated to EC80 with the corresponding agonist; read-out: screening result against bitter receptor 61
In short: as §1

hT2R4 = hT2R4 (Homo sapiens (Human), UniProt Q9NYW5); assay: hT2R panel inhibition, transient HEK293 G16g44, agonist Chloroquine pH6.5 5 mM; type: cell-based; details: HEK293, compound at 25 μM; receptor activated to EC80 with the corresponding agonist; class symbols; read-out: screening result against bitter receptor 4
Experimental: as §2, §3

hT2R55 = assay: hT2R panel inhibition, transient HEK293 G16g44, agonist Cinchonine 150 μM; type: cell-based, human; details: compound at 25 μM; receptor activated to EC80 with the corresponding agonist
In short: as §1

hT2R7 = hT2R7 (Homo sapiens (Human), UniProt Q9NYW3); assay: hT2R panel inhibition, transient HEK293 G16g44, agonist Chloroquine pH6.5 10 mM; type: cell-based; details: HEK293, compound at 25 μM; receptor activated to EC80 with the corresponding agonist; read-out: screening result against bitter receptor 7
In short: as §1

hT2R71 = hT2R71 (Homo sapiens (Human), UniProt P59536); assay: hT2R panel inhibition, transient HEK293 G16g44, agonist Picric Acid 10 μM; type: cell-based; details: HEK293, compound at 25 μM; receptor activated to EC80 with the corresponding agonist; read-out: screening result against bitter receptor 71
In short: as §1

hT2R63 = assay: hT2R panel inhibition, transient HEK293 G16g44, agonist Caffeine 1 mM or Andrographolide 100 μM; type: cell-based, human; details: compound at 25 μM; receptor activated to EC80 with the corresponding agonist
In short: as §1

hT2R64 = hT2R64 (Homo sapiens (Human), UniProt P59538); assay: hT2R panel inhibition, transient HEK293 G16g44, agonist Aristolochic Acid 1 μM; type: cell-based; details: HEK293, compound at 25 μM; receptor activated to EC80 with the corresponding agonist; read-out: screening result against bitter receptor 64
In short: as §1

hT2R14 [2] = biological target: T1, hT2R14; assay: hT2R14 antagonist high-throughput FLIPR assay, stable cell line with G16g44, agonist aristolochic acid; type: cell-based
In short: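 HEK293 cells stably expressing hT2R14 with chimeric G16g44 were stimulated with aristolochic acid (3 μM), giving 70-80% of maximal receptor activity. Test compounds were added together with the agonist, and antagonism was read as fluorescent calcium signal on FLIPR.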

hT2R10 = hT2R10 (Homo sapiens (Human), UniProt Q9NYW0); assay: hT2R panel inhibition, transient HEK293 G16g44, agonist Strychnine 50 μM; type: cell-based; details: HEK293, read-out: screening result against bitter receptor 10, compound at 25 μM; receptor activated to EC80 with the corresponding agonist
hT2R44 = assay: hT2R panel inhibition, transient HEK293 G16g44, agonist Denatonium 0.5 μM; type: cell-based, human; details: compound at 25 μM; receptor activated to EC80 with the corresponding agonist
In short: as §1

hT2R65 = assay: hT2R panel inhibition, transient HEK293 G16g44, agonist Oleuropein 1 mM; type: cell-based, human; details: compound at 25 μM; receptor activated to EC80 with the corresponding agonist
In short: as §1

hT2R16 = hT2R16 (Homo sapiens (Human), UniProt Q9NYV7); assay: hT2R panel inhibition, transient HEK293 G16g44, agonist Salicin 1 mM; type: cell-based; details: HEK293, compound at 25 μM; receptor activated to EC80 with the corresponding agonist; read-out: screening result against bitter receptor 16
In short: as §1

hT2R54 = assay: hT2R panel inhibition, transient HEK293 G16g44, agonist Ranitidine 5 mM; type: cell-based, human; details: compound at 25 μM; receptor activated to EC80 with the corresponding agonist
In short: as §1

[3] = read-out: IC50 on hT2R14 bitter receptor

hT2R61, sequence (P59537 whole entry): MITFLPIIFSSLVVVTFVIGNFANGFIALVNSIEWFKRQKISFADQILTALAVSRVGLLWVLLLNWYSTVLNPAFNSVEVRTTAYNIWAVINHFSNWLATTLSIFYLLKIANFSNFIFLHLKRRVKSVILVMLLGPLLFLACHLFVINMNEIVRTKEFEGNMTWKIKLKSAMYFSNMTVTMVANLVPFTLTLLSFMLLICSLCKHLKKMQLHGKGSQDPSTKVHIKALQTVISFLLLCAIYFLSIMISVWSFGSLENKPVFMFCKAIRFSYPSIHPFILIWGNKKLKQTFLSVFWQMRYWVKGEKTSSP
hT2R10, sequence (Q9NYW0 whole entry): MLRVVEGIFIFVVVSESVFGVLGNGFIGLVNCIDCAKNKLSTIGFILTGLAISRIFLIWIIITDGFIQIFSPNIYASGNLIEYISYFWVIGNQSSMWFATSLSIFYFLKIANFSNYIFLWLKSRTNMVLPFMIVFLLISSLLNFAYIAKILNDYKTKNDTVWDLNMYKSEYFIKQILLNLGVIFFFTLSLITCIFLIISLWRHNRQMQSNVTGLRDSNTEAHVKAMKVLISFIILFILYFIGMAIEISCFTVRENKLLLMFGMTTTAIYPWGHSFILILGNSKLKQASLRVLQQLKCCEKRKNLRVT
hT2R75, sequence (P59540 whole entry): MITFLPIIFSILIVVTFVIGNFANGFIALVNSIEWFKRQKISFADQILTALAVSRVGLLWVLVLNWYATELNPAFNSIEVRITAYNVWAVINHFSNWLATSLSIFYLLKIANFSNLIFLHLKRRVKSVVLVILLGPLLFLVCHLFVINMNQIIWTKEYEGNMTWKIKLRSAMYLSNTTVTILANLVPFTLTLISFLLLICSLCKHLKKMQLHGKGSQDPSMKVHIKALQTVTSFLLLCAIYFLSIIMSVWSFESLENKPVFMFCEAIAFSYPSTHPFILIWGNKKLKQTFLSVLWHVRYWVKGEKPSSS
hT2R16, sequence (Q9NYV7 whole entry): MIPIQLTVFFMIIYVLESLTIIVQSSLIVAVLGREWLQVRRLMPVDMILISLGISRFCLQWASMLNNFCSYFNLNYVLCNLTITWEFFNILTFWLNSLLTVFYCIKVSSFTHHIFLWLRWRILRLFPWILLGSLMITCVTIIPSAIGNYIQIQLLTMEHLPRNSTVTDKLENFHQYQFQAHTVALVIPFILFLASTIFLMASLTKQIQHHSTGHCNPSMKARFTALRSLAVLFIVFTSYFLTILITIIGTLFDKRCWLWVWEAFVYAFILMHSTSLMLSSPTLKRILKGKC
T1 sequence (Q9NYV8 whole entry): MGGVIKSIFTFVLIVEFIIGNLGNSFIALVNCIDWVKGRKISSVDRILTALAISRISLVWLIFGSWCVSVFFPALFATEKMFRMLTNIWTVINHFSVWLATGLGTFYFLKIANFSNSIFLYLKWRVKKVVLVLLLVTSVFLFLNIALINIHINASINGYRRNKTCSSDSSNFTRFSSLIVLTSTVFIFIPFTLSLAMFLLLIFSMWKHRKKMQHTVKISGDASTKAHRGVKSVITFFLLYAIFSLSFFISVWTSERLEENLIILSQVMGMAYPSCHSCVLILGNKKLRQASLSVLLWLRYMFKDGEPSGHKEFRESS
hT2R71, sequence (P59536 whole entry): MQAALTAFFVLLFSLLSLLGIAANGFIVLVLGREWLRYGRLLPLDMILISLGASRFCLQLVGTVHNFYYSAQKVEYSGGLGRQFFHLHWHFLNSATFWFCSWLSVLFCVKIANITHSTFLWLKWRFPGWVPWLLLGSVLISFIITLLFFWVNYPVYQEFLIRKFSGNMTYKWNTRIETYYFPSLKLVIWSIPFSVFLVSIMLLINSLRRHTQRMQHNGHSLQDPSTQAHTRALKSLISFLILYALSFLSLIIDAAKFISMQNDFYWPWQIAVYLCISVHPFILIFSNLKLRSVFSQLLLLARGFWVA
hT2R64, sequence (P59538 whole entry): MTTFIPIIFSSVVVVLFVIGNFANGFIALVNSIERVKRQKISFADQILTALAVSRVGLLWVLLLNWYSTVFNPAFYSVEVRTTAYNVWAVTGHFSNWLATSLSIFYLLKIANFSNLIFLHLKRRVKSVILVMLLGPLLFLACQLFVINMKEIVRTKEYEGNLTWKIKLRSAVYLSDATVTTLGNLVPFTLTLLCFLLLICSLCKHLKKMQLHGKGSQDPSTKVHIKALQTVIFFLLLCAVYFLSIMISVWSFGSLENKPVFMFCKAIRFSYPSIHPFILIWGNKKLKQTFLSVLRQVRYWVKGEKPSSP
hT2R3, sequence (Q9NYW6 whole entry): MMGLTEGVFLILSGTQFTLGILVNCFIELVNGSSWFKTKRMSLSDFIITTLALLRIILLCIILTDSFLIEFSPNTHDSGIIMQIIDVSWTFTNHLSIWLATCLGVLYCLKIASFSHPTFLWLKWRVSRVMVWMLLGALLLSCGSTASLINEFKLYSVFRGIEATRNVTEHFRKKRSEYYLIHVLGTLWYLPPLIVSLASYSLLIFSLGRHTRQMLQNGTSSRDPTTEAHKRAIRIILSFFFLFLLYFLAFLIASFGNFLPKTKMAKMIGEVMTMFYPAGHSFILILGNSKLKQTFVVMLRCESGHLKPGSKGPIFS
hT2R7, sequence (Q9NYW3 whole entry): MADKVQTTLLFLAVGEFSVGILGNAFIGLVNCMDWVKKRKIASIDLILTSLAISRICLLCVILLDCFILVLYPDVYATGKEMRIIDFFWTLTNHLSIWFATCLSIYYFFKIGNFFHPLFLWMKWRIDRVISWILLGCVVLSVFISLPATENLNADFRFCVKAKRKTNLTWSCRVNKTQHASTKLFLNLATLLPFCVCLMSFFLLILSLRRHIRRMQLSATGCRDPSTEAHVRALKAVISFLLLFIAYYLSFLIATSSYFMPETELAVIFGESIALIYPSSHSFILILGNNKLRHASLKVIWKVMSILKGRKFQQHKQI
hT2R4, sequence (Q9NYW5 whole entry): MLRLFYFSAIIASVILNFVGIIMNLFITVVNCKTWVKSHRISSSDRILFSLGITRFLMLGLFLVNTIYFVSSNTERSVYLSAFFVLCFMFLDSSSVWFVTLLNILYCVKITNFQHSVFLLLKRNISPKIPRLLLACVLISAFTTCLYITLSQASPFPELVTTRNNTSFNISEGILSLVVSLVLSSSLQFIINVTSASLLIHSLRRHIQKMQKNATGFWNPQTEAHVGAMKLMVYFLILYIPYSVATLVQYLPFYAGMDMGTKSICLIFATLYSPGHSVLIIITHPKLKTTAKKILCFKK

| Structure (SMILES) | inhibition at 25 µM (hT2R3) [%] | inhibition at 25 µM (hT2R14 [1]) [%] | inhibition at 25 µM (hT2R75) [%] | screening result against bitter receptor 67 (hT2R67) | inhibition at 25 µM (hT2R61) [%] | inhibition at 25 µM (hT2R4) [%] | screening result against bitter receptor 55 (hT2R55) | inhibition at 25 µM (hT2R7) [%] | inhibition at 25 µM (hT2R71) [%] | screening result against bitter receptor 63 (hT2R63) | inhibition at 25 µM (hT2R64) [%] | IC50 (hT2R14 [2]; [3]) | inhibition at 25 µM (hT2R10) [%] | screening result against bitter receptor 44 (hT2R44) | screening result against bitter receptor 65 (hT2R65) | inhibition at 25 µM (hT2R16) [%] | IC50 (hT2R14 [2]; Table C, read-out: hT2R14 IC50) [µM] | screening result against bitter receptor 54 (hT2R54) |
| --- | --- | --- | --- | --- | --- | --- | --- | --- | --- | --- | --- | --- | --- | --- | --- | --- | --- | --- |
| COc1ccccc1CN(Cc1ccco1)S(=O)(=O)c1ccc(C(=O)O)cc1 [Example 5-7, 4-(N-(furan-2-ylmethyl)-N-(2-methoxybenzyl)sulfamoyl)benzoic acid] | 20 to 40 | 40 to 60 | 20 to 40 | + (20% to 40% inhibition = +) | > 80 | 20 to 40 | ++++ (80% or greater inhibition = ++++) | 20 to 40 | 40 to 60 | ++++ (80% or greater inhibition = ++++) | > 80 | 12 µM | 20 to 40 | ++ (40% to 60% inhibition = ++) |  |  |  |  |
| O=C(O)C1CCC(CN(Cc2ccc(F)cc2)S(=O)(=O)c2cccs2)CC1 (centres unmarked) [Example 5-51, 4-((N-(4-fluorobenzyl)thiophene-2-sulfonamido)methyl)cyclohexanecarboxylic acid] | 40 to 60 | > 80 | 20 to 40 |  | > 80 | 20 to 40 | +++ (60% to 80% inhibition = +++) | 20 to 40 | 40 to 60 | +++ (60% to 80% inhibition = +++) | 40 to 60 |  | 20 to 40 | ++ (40% to 60% inhibition = ++) | + (20% to 40% inhibition = +) | 20 to 40 | 0.342 |  |
| CCN(Cc1ccc(OC)cc1)S(=O)(=O)c1ccc(C(=O)O)cc1 [Example 5-4, 4-(N-ethyl-N-(4-methoxybenzyl)sulfamoyl)benzoic acid] |  | 40 to 60 | 20 to 40 |  | 20 to 40 | 20 to 40 | ++++ (80% or greater inhibition = ++++) |  |  | +++ (60% to 80% inhibition = +++) | > 80 | 20 µM and 10 µM | 40 to 60 |  |  |  |  |  |
| CCCN(Cc1ccc(OC)cc1)S(=O)(=O)c1ccc(C(=O)O)cc1 [Example 5-17, 4-(N-(4-methoxybenzyl)-N-propylsulfamoyl)benzoic acid] | 20 to 40 | > 80 | 20 to 40 |  | > 80 | 20 to 40 | ++++ (80% or greater inhibition = ++++) | 20 to 40 | 40 to 60 |  |  | 3.75 µM |  | +++ (60% to 80% inhibition = +++) | ++ (40% to 60% inhibition = ++) | 20 to 40 |  | ++ (40% to 60% inhibition = ++) |
| O=C(O)C1CCC(CN(Cc2ccc(F)cc2)S(=O)(=O)c2ccccc2)CC1 (centres unmarked) [Example 5-22, 4-((N-(4-fluorobenzyl)phenylsulfonamido)methyl)-cyclohexanecarboxylic acid] | 40 to 60 | > 80 | 20 to 40 |  | > 80 | 40 to 60 | +++ (60% to 80% inhibition = +++) | 20 to 40 | 40 to 60 | +++ (60% to 80% inhibition = +++) | 40 to 60 | 0.24 µM | 20 to 40 | ++ (40% to 60% inhibition = ++) |  | 20 to 40 |  |  |
